Results published in article PMC6429117, “Discovery of Galangin as a Potential DPP-4 Inhibitor That Improves Insulin-Stimulated Skeletal Muscle Glucose Uptake: A Combinational Therapy for Diabetes” (International Journal of Molecular Sciences, 2019).

Target: T1, dipeptidyl peptidase-4 (DPP-4) (Homo sapiens, UniProt P27487)
T1 construct: gene DPP4; recombinant human DPP-4 enzyme
Test: fluorogenic enzyme inhibition assay (H-Gly-Pro-AMC cleavage, Sigma DPP-4 inhibitor screening kit)
Assay type: biochemical

T1 sequence (P27487 39-766): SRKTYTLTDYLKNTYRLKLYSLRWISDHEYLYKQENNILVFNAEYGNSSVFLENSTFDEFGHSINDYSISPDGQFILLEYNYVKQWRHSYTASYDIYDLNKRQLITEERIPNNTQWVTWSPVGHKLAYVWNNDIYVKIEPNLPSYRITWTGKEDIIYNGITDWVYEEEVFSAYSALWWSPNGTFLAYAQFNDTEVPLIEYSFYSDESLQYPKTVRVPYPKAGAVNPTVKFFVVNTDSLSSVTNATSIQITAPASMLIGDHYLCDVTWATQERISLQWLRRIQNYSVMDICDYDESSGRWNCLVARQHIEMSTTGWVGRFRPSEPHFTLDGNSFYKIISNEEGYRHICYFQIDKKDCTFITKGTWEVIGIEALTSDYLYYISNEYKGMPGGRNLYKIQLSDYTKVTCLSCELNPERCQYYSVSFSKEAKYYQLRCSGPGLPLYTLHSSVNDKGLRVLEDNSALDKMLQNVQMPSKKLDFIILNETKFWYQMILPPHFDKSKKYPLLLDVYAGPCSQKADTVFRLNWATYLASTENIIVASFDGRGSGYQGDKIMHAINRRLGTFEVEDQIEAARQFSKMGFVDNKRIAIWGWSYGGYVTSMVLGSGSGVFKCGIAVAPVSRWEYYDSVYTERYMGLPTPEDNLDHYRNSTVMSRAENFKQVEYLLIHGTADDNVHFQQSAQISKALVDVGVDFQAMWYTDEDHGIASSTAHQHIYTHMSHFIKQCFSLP

O=c1c(O)c(-c2ccccc2)oc2cc(O)cc(O)c12 [Galangin, 3,5,7-trihydroxyflavone]
IC50: 40.1 µM
